From patent publication US20240016772A1, “Compositions And Methods Comprising D-Cysteine Or A D-Derivative Thereof” (UNIVERSITE DE GENEVE, priority 2020, published 2024) come the findings set out here.

Test [1] has as its system A549 cells. The test can be described thus: Proliferation of A549 cells (cell counts after 72 h / 3 days). The conditions noted are these: 500 μM added to culture medium; cells counted after 3 days (72 h). The class given is cell-based, human. The method, then:
FIG. 1. Effect of L- and D-Cysteine, each tested at 500 microM, on the proliferation of A549 cells. Cells were counted 3 days after addition of L- or D-Cysteine. (CM=culture medium)
(§1) A549 lung tumor cells (FIG. 5A) or BEAS-2B normal bronchial epithelial cells (FIG. 5B) were cultured in complete media (CM) in the absence or presence of 500 μM D-cysteine (D-Cys). Cell numbers were analyzed after 72 h and after splitting of cells (p1). Cell numbers are expressed as % of cells cultured in the absence of D-cysteine. **** P<0.0001.
(§2) We therefore decided to test whether the D-cysteine-mediated inhibition of OCR could affect cell growth in a regular normal medium complemented with fetal calf serum. Most culture media used for cell culture contain 300 μM L-cystine. […] Importantly, some cancer cell lines, including HeLa cells (FIG. 4A), the MPM cell line H2052/484 (FIG. 4B), and osteosarcoma cell line 143B (not shown), were insensitive both in 2D cultures or in colony formation assays. The decrease in numbers of cells seen after 72 h exposure to D-cysteine was due to decreased cell proliferation. […] Importantly, in contrast to the results with cancer cells, normal human bronchial epithelial BEAS-2B cells were resistant to D-cysteine exposure even at very high concentration (FIG. 5B).

Test [2] concerns A549 cells. The test can be described thus: Cell death of A549 cells exposed to D-cysteine (passage p1, caspase 3 Western blotting, zVAD-fmk, CRISPR screen selection). The class given is cell-based, human. As to the method:
as §1, §2
For these experiments a pooled lentiviral CRISPR library (Addgene) targeting 19114 human genes was used to infect A549 cells, stably expressing the Cas9 nuclease. Cells were then cultured in the presence of 0.5 mM D-cysteine, a concentration sufficient to induce A549 cell death. After 2-3 weeks, the surviving clones were recovered and the sgRNAs were amplified by PCR and sequenced using next-generation sequencing (NGS) to identify the targeted genes (FIG. 6).
Background: Immunoblotting shows a protein as a band on a membrane.

For test [3], the system named is H1299 lung adenocarcinoma cells. Put plainly: Colony formation / proliferation, H1299. The class given is cell-based. As to conditions: colony formation assays or spheroids. The method, then:
(§3) FIGS. 4A-4D: D-cysteine affects tumor cell viability. Colony formation assays in presence or absence 0.1 mM D-cysteine (D-Cys) for 2 weeks. FIG. 4A: Lung tumor cell lines+cervix cell line (HeLa). FIG. 4B: MPM cell lines. FIG. 4C: A549. FIG. 4D: LuCa62 spheroid formation in presence or absence of 0.1 mM, 0.2 mM or 0.5 mM D-cysteine for 17 days.
as §2

Test [4] concerns BZR tumorigenic bronchial epithelial cells. Put plainly: Colony formation / proliferation, BZR. In kind it is cell-based. As to conditions: colony formation assays or spheroids. As to the method: as §3, §2
Test [5] deals with cell lines derived from malignant pleural mesothelioma (MPM). Put plainly: Colony formation, MPM cell lines. The conditions noted are these: colony formation assays or spheroids. In kind it is cell-based. The method, then: as §3, §2
The test system of test [6] is HeLa cells. Put plainly: 2D culture / colony formation, HeLa. The class given is cell-based. The conditions noted are these: 2D cultures or colony formation assays. As to the method: as §3, §2
In test [7] the test system is MPM cell line H2052/484. The test can be described thus: 2D culture / colony formation, H2052/484. As to conditions: 2D cultures or colony formation assays. The class given is cell-based. As to the method:
as §3, §2

The test system of test [8] is BEAS-2B normal bronchial epithelial cells. The test can be described thus: Proliferation of BEAS-2B normal cells. The class given is cell-based, human. The conditions noted are these: 500 μM; 72 h and after splitting (p1); even at very high concentration. The method, then: as §1, §2
Test [9] concerns A549 cells. The test can be described thus: Iron concentration in A549 cells by ICP-MS. The class given is cell-based, human. As to conditions: 72 h. As to the method: FIG. 3. Iron concentration in A549 cells cultured in the presence or absence of D-Cysteine for 72 h. Iron was measured using ICP-MS (Inductively coupled plasma mass spectrometry).
Moreover, D-cysteine could also trigger ferritinophagy, which is a process triggered in cells lacking iron. The most likely explanation is that D-cysteine, which accumulates in cells since it is not consumed during protein synthesis or other pathways, can react with iron through its thiol group, thus acting as an iron chelator. […] As a consequence, intracellular iron is depleted, and cells trigger ferritinophagy releasing ferric iron, thus leading to ROS production, lipid peroxidation and cell death.

In test [10] the test system is A549 cells. Put plainly: Mitochondrial respiration (OCR) of A549 cells. In kind it is cell-based, human. As to conditions: 500 μM, 72 h. The method, then:
FIG. 9: D-cysteine impairs mitochondrial respiration of lung tumor cells. A549 cells were cultured for 72 h in complete media (CM) supplemented or not with 500 μM D-cysteine (D-Cys), and oxygen consumption rate (OCR) was quantified both before (basal respiration) and after sequential addition of oligomycin and FCCP (maximal respiration).

“Also recorded” adds a separate entry of the source.

Consider `N[C@H](CS)C(=O)O` [D-cysteine], for which the “proliferation of A549 cells” value in [1] was “inhibited the proliferation; also recorded: impairs proliferation of tumor cells”. In addition, the “cell death after first passage of cells (p1)” value in test [2] (A549, 500 μM D-cysteine, after 72 hours, following first passage) was “extensive cell death”. For the same compound, the “concentration sufficient to induce A549 cell death” value in test [2] (A549 cells stably expressing Cas9, culture 2-3 weeks) is on record as 0.5 mM. The “caspase 3 by Western blotting” value in test [2] (D-cysteine-exposed cells, data not shown) is reported as “No increase in caspase 3”. Besides, the “antiproliferative effect, H1299” value in test [3] was “antiproliferative effect”. Also, the “antiproliferative effect, BZR” value in [4] was “antiproliferative effect”. Besides, the “antiproliferative effect, MPM-derived cell lines” value in test [5] was “antiproliferative effect”. Further, the “sensitivity of HeLa cells” value in test [6] is given as “insensitive”. The “sensitivity of MPM cell line H2052/484” value in [7] is “insensitive”. In addition, the “proliferation of normal BEAS-2B cells” value in [8] is reported as “resistant”. The “cellular iron (ICP-MS)” value in test [9] is on record as “decrease in cellular iron”. For the same compound, in test [10], the basal oxygen consumption result is “strongly impaired”. The maximal oxygen consumption entry in test [10] (after oligomycin and FCCP) was “strongly impaired”.
